Tests used:
[1] = system: full length SMN2 minigene mRNA containing SMN2 exon 7; assay: SMN2 minigene mRNA splicing RT-qPCR assay in cultured cells; assay type: cell-based, human; conditions: Homo sapiens, HEK293-H; HEK293H cells stably transfected with SMN2-A minigene, 24 hours, 7-point concentration curve; concentration giving 1.5-fold full length SMN2 mRNA vs vehicle; read-out: EC1.5x for production of full length SMN2 mRNA
In short: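 Read-out is minigene FL mRNA (exon 7 included) relative to vehicle, from efficiency-corrected ΔΔCt with GAPDH normalisation. Primers and probe span exon 7, exon 8 and luciferase, so endogenous SMN is not detected. Stable SMN2-A minigene HEK293H cells, 24 h compound exposure at 37 °C, 7-point curve in duplicate.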

[2] = system: Smn protein; assay: Smn protein assay in cultured cells (SMN HTRF); assay type: cell-based, human; conditions: SMA patient fibroblast cells (GM03813), 48 hours; for EC1.5x for Smn protein expression: 7-point concentration curve, concentration producing 1.5 times Smn protein vs DMSO vehicle; for maximum fold (Fold) increase of Smn protein: 7-point concentration data, relative to vehicle control
In short: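 Smn protein measured by HTRF (anti-SMN d2/kryptate) in lysates of SMA patient fibroblasts after 48 h compound treatment, 7-point 3.16-fold dilutions, triplicates. The 665/620 nm ratio is blank-corrected to ΔF, then divided by the vehicle ΔF to give fold increase.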

Row | Compound | EC (1.5-fold) [1] [µM] | EC1.5x for Smn protein expression [2] | maximum fold (Fold) increase of Smn protein [2] | melting point
1 | CCN1CCN(c2ccc3cc(-c4cn5cc(C)nc(C)c5n4)oc(=O)c3c2)C[C@H]1C [Cpd 140, 3-(6,8-dimethylimidazo[1,2-a]pyrazin-2-yl)-7-[(3R)-4-ethyl-3-methylpiperazin-1-yl]-1H-isochromen-1-one] | ≤ 0.1 | **** (an EC1.5×≦0.3 nM is indicated by four stars (****)) | ***** (a fold increase >1.65 is indicated by five stars (*****)) | 243 to 246 °C
2 | C[C@@H]1CN(c2ccc3cc(-c4ccc5c(c4)OCCO5)oc(=O)c3c2)CCN1 [Cpd 37, 3-(2,3-dihydro-1,4-benzodioxin-6-yl)-7-[(3R)-3-methylpiperazin-1-yl]-1H-isochromen-1-one] | 1 to 3 | – | * (A maximum fold increase of ≦1.2 is indicated by one star (*)) | 175 to 177 °C
3 | COc1ccc(-c2cc3ccc(N4CCN[C@@H](C)C4)cc3c(=O)o2)cc1Cl [Cpd 46, 3-(3-chloro-4-methoxyphenyl)-7-[(3S)-3-methylpiperazin-1-yl]-1H-isochromen-1-one] | 0.1 to 0.3 | *** (an EC1.5× between >0.3 nM and ≦1 nM is indicated by three stars (***)) | **** (a fold increase between >1.5 and ≦1.65 is indicated by four stars (****)) | 187 to 189 °C
4 | CN1CCN(c2ccc3cc(-c4cn5ccsc5n4)oc(=O)c3c2)CC1 [Cpd 33, 3-(imidazo[2,1-b][1,3]thiazol-6-yl)-7-(4-methylpiperazin-1-yl)-1H-isochromen-1-one] | 1 to 3 | – | * (A maximum fold increase of ≦1.2 is indicated by one star (*)) | 236 to 238 °C
5 | Cc1nc(Cl)cn2cc(-c3cc4ccc(C5=CCNCC5)cc4c(=O)o3)nc12 [Cpd 113, 3-(6-chloro-8-methylimidazo[1,2-a]pyrazin-2-yl)-7-(1,2,3,6-tetrahydropyridin-4-yl)-1H-isochromen-1-one] | ≤ 0.1 | ** (an EC1.5× between >1 μM, and ≦3 nM is indicated by two stars (**)) | **** (a fold increase between >1.5 and ≦1.65 is indicated by four stars (****)) | 269 to 273 °C
6 | Cc1nc2ccc(-c3cc4ccc(N5CCNCC5)cc4c(=O)o3)cc2s1 [Cpd 103, 3-(2-methyl-1,3-benzothiazol-6-yl)-7-(piperazin-1-yl)-1H-isochromen-1-one] | ≤ 0.1 | **** (an EC1.5×≦0.3 nM is indicated by four stars (****)) | **** (a fold increase between >1.5 and ≦1.65 is indicated by four stars (****)) | 271 to 276 °C
7 | CN1CCN(c2ccc3cc(-c4ccccn4)oc(=O)c3c2)CC1 [Cpd 4, 7-(4-methylpiperazin-1-yl)-3-(pyridin-2-yl)-1H-isochromen-1-one] | 3 to 30 | – | * (A maximum fold increase of ≦1.2 is indicated by one star (*)) | 174 to 176 °C
8 | CCOc1ccc(-c2cc3ccc(N4CCNCC4)cc3c(=O)o2)cc1 [Cpd 51, 3-(4-ethoxyphenyl)-7-(piperazin-1-yl)-1H-isochromen-1-one] | 1 to 3 | – | * (A maximum fold increase of ≦1.2 is indicated by one star (*)) | 245 °C (dec.)
9 | Cc1cn2cc(-c3cc4ccc(N5CCN[C@H](C)C5)cc4c(=O)o3)nc2cn1 [Cpd 125, 3-(6-methylimidazo[1,2-a]pyrazin-2-yl)-7-[(3R)-3-methylpiperazin-1-yl]-1H-isochromen-1-one] | ≤ 0.1 | **** (an EC1.5×≦0.3 nM is indicated by four stars (****)) | ***** (a fold increase >1.65 is indicated by five stars (*****)) | 219 to 225 °C

Reference: patent US9399649B2, “Compounds for treating spinal muscular atrophy” (PTC Therapeutics Inc., priority 2012, dated 2016)
